Data published in patent US20050260158A1, “Human stem cell materials and methods” (priority 2003, published 2005).
Like-named read-outs stand apart in the source and are kept apart here.

Key:
MDSC cultures [1] = assay: Insulin release from MDSC cultures (insulin ELISA); assay type: cell-based, human; design: insulin release with osmolarity control: dose or concentration left out as unconfirmed
Experimental: Insulin release. MDSC cultures incubated in 24-well tissue culture plates (Costar, Cambridge, Mass.) at 70-80% confluence were treated for 4-5 days with LPS or CD40Ab. Insulin secretion was assessed as previously described in Schuit, F., et al., J. Biol. Chem. 272:18572-18579 (1997), using an insulin ELISA kit (Linco Research, MO). When required, the untreated or treated cultures were also pre-incubated for 30 min with […] diazoxide, 10 mM tolbudamide, or […] IBMX.

[2] = test system: MDSC colonies Clone 1 and Clone 2; settings: seven days; for Immunostained cells (%), vWF (Endothelial): 50 ng/ml VEGF; for Immunostained cells (%), Keratins (Epithelial): 100 ng/ml EGF; for Immunostained cells (%), AFP (Hepatocyte): 50 ng/ml HGF; for Immunostained cells (%), MAP1-B (Neuronal): 200 ng/ml NGF
Experimental: To determine whether progeny of colonies derived from single MDSCs can be induced to differentiate into distinct cell lineages, cells from a five-day, 50 ng/ml, M-CSF-treated culture enriched to contain 99.97% peripheral blood monocytes were inoculated into 12 U-bottom tissue culture plates, 96 wells each, at 0.8 cells/well in 0.1-0.2 ml growth medium. The cells were then incubated in the presence of 50 ng/ml M-CSF and 1,000 units/ml LIF for 15-20 days. Additionally, one plate was incubated with 25% conditioned medium from a five-day, 50 ng/ml, M-CSF treated culture. […] The few wells that contained more than one cell were excluded from further experimentation. Medium was replaced every 5-7 days.
At 45-52 days, these cells were dispersed by forceful pipetting, without lidocaine, into flat-bottom, 96-well, tissue culture plates. […] Two colonies of MDSCs, each of which had arisen from a single cell, were chosen for further differentiation experiments and were termed Clone 1 and Clone 2. […] These antibodies separately recognized cell-surface markers that included the T lymphocyte marker CD3, the epithelial marker keratin, the endothelial marker vWF, the neuronal marker MAP1-B, and the hepatocyte marker AFP.

MDSC cultures [3] = assay: VEGF-induced endothelial cell differentiation of MDSC cultures; settings: 50 ng/ml VEGF, 5-7 days
Experimental: MDSC cultures prepared as described above were treated with 50 ng/ml of recombinant human vascular endothelial growth factor165 isoform (VEGF) for 5-7 days.

MDSCs = assay: Dispersion of MDSCs from the culture dish by standard digestion; assay type: cell-based, human; settings: standard digestion for up to 60 minutes
Experimental: In this example, a feature of the MDSCs is resistance to dispersion by trypsin and/or EDTA, or dispase. […] Therefore, to obtain cell suspensions for subculture, the MDSCs were dispersed by forceful pipetting after incubation with 2% lidocaine in a PBS solution for 5-8 minutes, with the exception of the work described in Example 8.

MDSC cultures [4] = assay: EGF-induced epithelial cell differentiation of MDSC cultures; assay type: cell-based, human; settings: 100 ng/ml EGF, 4 days
From the text: To determine whether MDSCs differentiate into lineages other than those of blood cells, the ability to differentiate into epithelial cells was initially tested. […] Only 4±1% of control cells stained for keratins and 3±2% for E-cadherin. Cells that stained positive for E-cadherin consistently stained for keratins.

MDSC cultures [5] = assay: HGF-induced hepatocyte differentiation of MDSC cultures; assay type: cell-based, human
From the text: A smaller fraction of 33±4% also immunostained for cytokeratin 7, which is a marker of bile duct epithelium (Ruck et al., Histopathology 31: 324-329 (1997)). Only 8±5% of control cells immunostained for albumin, 6±5% for AFP, and 7±3% for cytokeratin 7.

MDSC cultures [6] = assay: bNGF-induced neuronal cell differentiation of MDSC cultures; assay type: cell-based, human; settings: 200 ng/ml bNGF
Experimental: To examine the ability of MDSCs to mature along yet another cell lineage, the effect of nerve growth factor (bNGF), an inducer of neuronal differentiation (McAllister et al., Cell. Mol. Life Sci., 58:1054-1060 (2001)), was tested. […] After 5-8 days these processes, some of which were exceedingly long, formed cell-cell contacts and created the appearance of a neural network. These mature cells were further characterized by immunostaining for neuron-specific enolase (NSE), neurofilament (NF) and microtubule-associated protein-1B (MAP-1B), which are well-known markers of neuronal cells (Encinas et al., J. Neurochem., 75:991-1003 (2000)).

[7] = test system: freshly cultured peripheral blood monocytes; assay: bNGF treatment of freshly cultured peripheral blood monocytes; assay type: cell-based, human; settings: bNGF for 7 or 20 days
[8] = test system: human peripheral blood monocytes; assay: Generation and growth of MDSCs in cultured peripheral blood monocytes (morphological examination); assay type: cell-based
Experimental: Peripheral blood monocyte (PBM) preparations from about 50 ml buffy coats samples (each from 500 ml peripheral blood) of healthy individuals (LifeSource Blood Services, Glenview, Ill.) were obtained by a selective attachment method as previously described (Hoklland, M. et al., Cell Biology, a laboratory handbook, Celis J. E. ed., Academic Press, 1: 179-181 (1994)). Buffy coat cell samples of 20-25 ml, which were diluted earlier with an equal volume of RPMI 1640 medium (Life Technologies, Inc.), were carefully layered over 20 ml Ficoll-Hypaque (γ=1.077) in 50 ml centrifuge tubes and then centrifuged using a Beckman CPKR centrifuge and a GH-3.7 horizontal rotor at 3,500 rpm (2700 g) for 25 minutes at 4° C. After carefully harvesting the mononuclear cells at the interface, cells were washed 2-3 times with RPMI 1640 medium by centrifugation using a Beckman CPKR centrifuge and a GH-3.7 horizontal rotor at 1,000 rpm (250 g) for 10 minutes. The cells were then used for culture and/or stored in liquid nitrogen in a 90% bovine calf serum and 10% dimethyl sulfoxide solution. The cells, including those obtained from storage in liquid nitrogen, were incubated at 2-3×10^7 cells/15 cm dish. After 8-12 hours incubation at 37° C. (8% CO2), the floating cells were removed and the dishes were rinsed 5 times with RPMI 1640 medium. The attached cells were then detached from the surface of the dishes by forceful pipetting with 5-10 ml of RPMI 1640 medium supplemented with 10% bovine calf serum.
The percentage of PBM was verified by immunostaining with an R-phycoerythin-conjugated mouse anti-human CD14 monoclonal antibody using a Becton Dickinson FACScan. The fraction of CD14 cells in these cell preparations, which were usually used in the experiments, was 90-95%. In a number of experiments, the CD14-immunostained cells were further isolated to a purity of 99.97% by using a droplet cell-sorting method by means of a 5 detector Becton Dickinson FACStarPlus Cell Sorter. The isolated PBMs were inoculated at 1×10^5 cells/ml in 8-well LabTek chamber slides (Nunc, Inc., Naperville, Ill.) at 0.4 ml/well in a 37° C. humidified atmosphere containing 8% CO2. Every five to seven days, one-half of the culture medium was replaced with fresh growth medium. This medium consisted of RPMI-1640 supplemented with 10% heat-inactivated bovine calf serum (Harlan, Indianapolis, Ind.), 100 units/ml penicillin, 100 μg/ml streptomycin, and 2 mM L-glutamine (Life Technologies).
Five preparations of cultured human peripheral blood monocytes, each from a different individual, were treated with 50 ng/ml M-CSF (Zhoa et al., Proc. Natl. Acad. Sci., 100:2426-2431 (2003); incorporated herein by reference in its entirety). After five days of incubation, the cultures contained two major morphologically distinct subsets of cells. The less abundant of the two subsets, containing about 25-35% of the total cells, was composed of elongated cells that morphologically resembled fibroblasts and were termed monocyte-derived stem cells (MDSCs). The other subset, containing about 65-75% of the total, was composed of standard macrophages, which were termed s-macrophages or standard macrophages (s-MΦ) (FIG. 1). […]
In order to determine whether the MDSCs were simply replicating progenitors of s-MΦ, five preparations of cultured peripheral blood monocytes, each from a different human, were treated with 50 ng/ml M-CSF and the number of MDSCs and s-MΦ were determined over a period of 14 days by morphological examination. […]

[9] = 50 ng/ml M-CSF, five days, five monocyte preparations

In the case of `CC1=NS(=O)(=O)c2cc(Cl)ccc2N1` [diazoxide], the “effect on LPS- or CD40Ab-induced insulin release” value (MDSC cultures [1]; high glucose, 30 min pre-incubation) is reported as “effectively inhibited”.

In the case of VEGF, the “Immunostained cells (%), vWF (Endothelial)” value ([2]; Clone 1) is reported as 80%, the “Immunostained cells (%), vWF (Endothelial)” value ([2]; Clone 2) is reported as 87% and the “cells displaying endothelial cell morphology” value (MDSC cultures [3]) is reported as “about 70%”. The “cells immunostaining for VEGF-R2, VEGF-R3 and vWF” value (MDSC cultures [3]) was 74±3% and the “cells immunostaining for neuronal markers NSE, NF and MAP-1B” value (MDSC cultures [3]) was 31±4%.

With trypsin the “removal of MDSCs from the surface of the culture dish” value (MDSCs) was “failed to remove the MDSCs”.

With “EGF: promoter of epithelial cell growth and differentiation” the “Immunostained cells (%), Keratins (Epithelial)” value ([2]; Clone 1) was 89%, the “Immunostained cells (%), Keratins (Epithelial)” value ([2]; Clone 2) was 76% and the “MDSCs displaying epithelial cell morphology” value (MDSC cultures [4]) was “about 70%”. For the same molecule, the “cells immunostaining for E-cadherin” value (MDSC cultures [4]) was 68±5% and the “cells immunostaining for pan-keratins” value (MDSC cultures [4]) was 71±4%.

For `OC[C@@H](O)[C@@H](O)[C@H](O)[C@H](O)CO` [Mannite], the “insulin release with osmolarity control” value (MDSC cultures [1]) was “little to no insulin release”.

“HGF: recombinant human hepatocyte growth factor” was tested, and the “Immunostained cells (%), AFP (Hepatocyte)” value ([2]; Clone 1) was 88%, the “Immunostained cells (%), AFP (Hepatocyte)” value ([2]; Clone 2) was 75% and the “cells displaying round or oval-like flattened morphology” value (MDSC cultures [5]; 100 ng/ml HGF, 5-7 days) was 75-80%. The “cells immunostaining for cytokeratin 7” value (MDSC cultures [5]; 100 ng/ml HGF, 5-7 days) was 33±4%, the “treated cells immunostaining for AFP” value (MDSC cultures [5]; 100 ng/ml HGF, 5-7 days) was 81±7% and the “treated cells immunostaining for albumin” value (MDSC cultures [5]; 100 ng/ml HGF, 5-7 days) was 75±7%. For the same molecule, the “Percentage of cells displaying immunostaining for AFP” value (MDSC cultures [5]; HGF 50 ng/ml (Table 3)) was 81 ± 7%, the “Percentage of cells displaying immunostaining for Albumin” value (MDSC cultures [5]; HGF 50 ng/ml (Table 3)) was 75 ± 7% and the “Percentage of cells displaying immunostaining for Cytokeratin 7” value (MDSC cultures [5]; HGF 50 ng/ml (Table 3)) was 33 ± 4%.

For `CCCCNC(=O)NS(=O)(=O)c1ccc(C)cc1` [tolbutamide], the “effect on LPS- or CD40Ab-induced insulin release” value (MDSC cultures [1]; low glucose (5 mM), 30 minutes, 10 μM tolbudamide, 100 μM IBMX) was “markedly stimulated”.

“bNGF: nerve growth factor, an inducer of neuronal differentiation” was tested, and the “Immunostained cells (%), MAP1-B (Neuronal)” value ([2]; Clone 1) was 83%, the “Immunostained cells (%), MAP1-B (Neuronal)” value ([2]; Clone 2) was 80% and the “MDSCs displaying neuronal morphology” value (MDSC cultures [6]) was “about 90%”. For the same molecule, the “cells with immunostaining for NSE, NF and MAP-1B” value (MDSC cultures [6]; 5-8 days) was “about 90%”, the “cells with robust immunostaining for NSE, NF and MAP-1B” value (MDSC cultures [6]; three days) was 25% and the neuronal differentiation [7] was “Little to no neuronal differentiation”.

B1: M-CSF: macrophage colony-stimulating factor, mitogenic compound used to propagate MDSCs (protein, UniProt P09603 33-554, looked up)
Macrophage colony-stimulating …: EEVSEYCSHMIGSGHLQSLQRLIDSQMETSCQITFEFVDQEQLKDPVCYLKKAFLLVQDIMEDTMRFRDNTPNAIAIVQLQELSLRLKSCFTKDYEEHDKACVRTFYETPLQLLEKVKNVFNETKNLLDKDWNIFSKNCNNSFAECSSQDVVTKPDCNCLYPKAIPSSDPASVSPHQPLAPSMAPVAGLTWEDSEGTEGSSLLPGEQPLHTVDPGSAKQRPPRSTCQSFEPPETPVVKDSTIGGSPQPRPSVGAFNPGMEDILDSAMGTNWVPEEASGEASEIPVPQGTELSPSRPGGGSMQTEPARPSNFLSASSPLPASAKGQQPADVTGTALPRVGPVRPTGQDWNHTPQKTDHPSALLRDPPEPGSPRISSLRPQGLSNPSTLSAQPQLSRSHSSGSVLPLGELEGRRSTRDRRSPAEPEGGPASEGAARPLPRFNSVPLTDTGHERQSEGSFSPQLQESVFHLLVPSVILVLLAVGGLLFYRWRRRSHQEPQRADSPLEQPEGSPLTQDDRQVELPV
For B1, the “MDSCs in confluent cultures” value ([8]; 50 ng/ml M-CSF, after day 10) was 80-90%, the “MDSC population replication interval” value ([8]; 50 ng/ml M-CSF, estimated from growth curve after 6 days) was “three” and the “MDSCs, share of the total cells” value [8, 9] was 25-35%. For the same molecule, the “standard macrophages (s-MΦ), share of the total cells” value [8, 9] was 65-75% and the “cells with MDSC morphology” value ([8]; 50 ng/ml, 7-9 days) was 70-80%.
